Data reported in US20180117036A1, “ORAL PHARMACEUTICAL COMPOSITION FOR INCREASING HYPOXIA TOLERANCE” (CHANGZHOU HI-TECH DISTRICT MULTIPLE DIMENSION INDU, priority 2013, published 2018).
Where a name gives a salt, the structure may show the parent alone.

Test system: hypoxic mice
Assay: Survival time of mice under normal pressure in hypoxic condition (sealed wide mouth bottle with soda lime)
Format: in vivo
Conditions: intragastric; for Extended Survival Time: 7 days, vs control group; for Survival Time: once a day for 7 days, n = 10, x ± S
Protocol: Observation of influence of oral administration of different dosage combination of L-carnitine+trimetazidine to hypoxic mice in normal pressure trimetazidine hydrochloride: 0.15, 0.75, 1.5, 3, 6 and 9 mg/kg, equivalent to human daily dosage of 1, 5, 10, 20, 40 and 60 mg;
L-carnitine: 600 mg/kg, equivalent to human daily dosage of 4 g; 70 male mice are selected, each of a weight of 20±2 g. The mice are divided into […] randomly based on weight, 10 for each group, and are given oral administration at a dosage of 20 ml/kg, while the control group is given isovolumetric normal saline, both once a day for consecutive 7 days. In one hour after the final administration, each group of mice are placed in wide mouth bottles of a volume of 160 ml, into which 5 g of soda lime has been pre-added. One bottle contains one mouse and its cap is sealed with Vaseline. Taking death of mice as index, putting down the survival time of mice and taking a 20% or more extension of survival time as significant effect. Please refer to table 1 for the results.
Comparison of L-carnitine 600 mg/kg+trimetazidine hydrochloride 6 mg/kg and separate intragastric administration on mice in hypoxia under atmospheric pressure 40 male mice are selected, each of a weight of 20±2 g. The mice are divided into 4 groups randomly based on weight, 10 for each group, and are given intragastric administration at a dosage of 20 ml/kg, while the control group is given isovolumetric normal saline, both once a day for consecutive 7 days. In one hour after the final administration, each group of mice are placed in wide mouth bottles of a volume of 160 ml, into which 5 g of soda lime has been pre-added. One bottle contains one mouse and its cap is sealed with Vaseline. Taking death of mice as index and putting down the survival time of mice. Please refer to table 2 for the results.

[1] = trimetazidine hydrochloride 6 mg/kg alone

SMILES	Extended Survival Time (L-carnitine 600 mg/kg alone)	Survival Time (L-carnitine 600 mg/kg alone)	Extended Survival Time [1]	Survival Time [1]
C[N+](C)(C)C[C@H](O)CC(=O)[O-] [L-carnitine]	33.0%	28.6 ± 4.8 min	–	–
COc1ccc(CN2CCNCC2)c(OC)c1OC [trimetazidine hydrochloride]	–	–	20.9%	26.0 ± 5.2 min
